Calls of active or inactive are those of the source. No cut-off for these calls is given here.
Tests used:
Staphylococcus aureus [1] = experiment: Antibacterial activity against Staphylococcus aureus at 40 ug/ml relative to control; format: functional
Staphylococcus aureus [2] = experiment: Antibacterial activity against Staphylococcus aureus at 10 ug/ml relative to control; format: functional

SMILES: CC(C)=CC[C@@]12CCN(C)[C@@H]1Nc1ccccc12
- Activity (Staphylococcus aureus [1]): 99%
- Activity (Staphylococcus aureus [2]): 50%

SMILES: CC(C)=CC[C@@]12CCN(C)[C@@H]1Nc1ccccc12 (racemic) [listing 1 of 2 here]
- Activity (Staphylococcus aureus [1]): 85%

SMILES: CC(C)=CC[C@@]12CCN(C)[C@@H]1Nc1ccccc12 (racemic) [listing 2 of 2 here]
- Activity (Staphylococcus aureus [2]): inactive

SMILES: COC(=O)N1CC[C@@]2(CC=C(C)C)c3ccccc3N(CC=C(C)C)[C@@H]12 (racemic)
- Activity (Staphylococcus aureus [1]): inactive
- Activity (Staphylococcus aureus [2]): inactive

SMILES: CC(C)=CCN1c2ccccc2[C@]2(CC=C(C)C)CCN(C)[C@H]12 (racemic) [(-)-DEBROMOFLUSTRAMINE B]
- Activity (Staphylococcus aureus [1]): 30%

Source: ChEMBL document CHEMBL1146990, “Antibacterial activity of (-)-deoxypseudophrynaminol versus its racemate and derivatives” (2006)
